Results published in US20240197716A1, “TREATMENTS FOR CUSHING'S SYNDROME THAT DO NOT SIGNIFICANTLY AFFECT CARDIAC RHYTHMS” (Corcept Therapeutics Incorporated, priority 2022, published 2024).
Values joined by “and” are separate entries in the source; they are usually repeats but may differ in a detail not shown here. Identical values can stand only once.

Columns and labels:
[1] = Effect of food on relacorilant Cmax; format: in vivo
patients with CS = experiment: Phase 2 CS study (NCT02804750), ECG / QTcF; format: in vivo, human
Experimental: A single-arm, open-label phase 2 study (NCT02804750) in patients with CS. 17 patients received low-dose relacorilant (100-200 mg QD) for 12 weeks; 18 patients received high-dose relacorilant (250-400 mg QD) for 16 weeks.
In all studies, ECG data were collected and the heart rate-corrected QT interval using Fridericia's formula (QTcF) was calculated. Participants with a family history of or risk factors for torsades de pointes or with a prolonged QT interval at screening were not eligible to participate. Exposure-response analysis of the effect of relacorilant on the heart-rate corrected QT interval (QTc) was conducted using a linear model with an intercept.
In a 3-part, single-center, First-in-Human study (NCT03508635, “phase 1 study”), 103 healthy volunteers received single or multiple ascending doses of relacorilant (up to 500 mg QD) for up to 14 days; 24 received placebo. In a randomized, partial double-blind, crossover Thorough QT study (NCT04795479, “TQT study”), the effect of multiple therapeutic (400 mg QD, n=25) and supra-therapeutic (800 mg QD, n=28) doses of relacorilant on cardiac repolarization was studied in healthy volunteers. A single dose of moxifloxacin (400 mg, n=28) was used as a positive control; 29 participants received placebo. In a single-arm, open-label phase 2 study (NCT02804750, “CS study”), 17 patients with CS received low-dose relacorilant (100-200 mg QD) for 12 weeks and 18 patients received high-dose relacorilant (250-400 mg QD) for 16 weeks. In all studies, ECG data were collected, and the heart rate-corrected QT interval using Fridericia's formula (QTcF) was assessed.

[2] = test system: cardiac repolarization in healthy volunteers; experiment: Thorough QT/QTc (TQT) study (NCT04795479), cardiodynamic Holter ECG; settings: for ΔΔQTcF Estimate (msec) (90% CI), predicted at geometric mean Cmax: PK/QTc population
Text: These studies included a randomized, partial double-blind, placebo- and positive-controlled, multiple-dose, 4-way crossover, thorough QT/QTc (TQT) study to investigate the effect of relacorilant on cardiac repolarization. These studies measured placebo-corrected change-from-baseline QTcF (ΔΔQTcF); change-from-baseline of QTcF, HR, and PR and QRS intervals (ΔQTcF, ΔHR, ΔPR, and ΔQRS); placebo-corrected change-from-baseline of HR, and PR and QRS intervals (ΔΔHR, ΔΔPR, and ΔΔQRS); categorical outliers for QTcF, HR, and PR and QRS intervals; the frequency of treatment-emergent changes of T-wave morphology and presence of U-waves; PK parameters of relacorilant and its metabolites (CORT125337, CORT125336, and CORT125295) and moxifloxacin; safety profiles, including AEs/SAEs, physical examination, clinical chemistry, hematology, urinalysis, ECG, and vital signs.
A phase 1, randomized, partial double-blind, crossover thorough QT study (NCT04795479) to assess the effect of multiple doses of relacorilant on cardiac repolarization in healthy volunteers. Participants were randomized to dosing sequences to receive relacorilant at therapeutic (400 mg QD, n=25) or supra-therapeutic (800 mg QD, n=28) doses, or placebo (n=29) for 5 days. Moxifloxacin (400 mg single dose, n=28) was used as a positive control.
Each subject received 4 treatments in a randomized sequence during the study period. Each dosing consisted of 8 capsules (except for moxifloxacin on Day 5), including: • Treatment T: Multiple oral doses of 400 mg relacorilant (4 capsules)+placebo for relacorilant (4 capsules) once daily for 5 days; • Treatment ST: Multiple oral doses of 800 mg relacorilant (8 capsules) once daily for 5 days; • Treatment P: Multiple oral doses of placebo for relacorilant (8 capsules) once daily for 5 days; • Treatment M: Multiple oral doses of placebo for relacorilant (8 capsules) once daily for 4 days and a final single oral dose of 400 mg moxifloxacin (one tablet) on Day 5.
In a portion of present study conducted in healthy subjects, a single dose of moxifloxacin (400 mg; Treatment M) on the last day of its respective treatment period was included as a positive control to determine the sensitivity of the study to detect small QTc changes. Relacorilant doses included both a therapeutic dose level (400 mg; Treatment T) and a supra-therapeutic dose level (800 mg; Treatment ST). The study was blinded to subjects, investigator, study staff, and sponsor with respect to relacorilant (Treatments T and ST) and placebo for relacorilant (Treatment P); it was open-labeled for moxifloxacin (Treatment M). Enrolled subjects were randomized to one of twelve (12) dosing sequences to receive 4 different treatments according to the assigned dosing sequence as shown below:
In each period, subjects were admitted to the clinical site in the morning of Day-1 and stayed in the site until the morning of Day 6. In the study periods when subjects were randomized to Treatment T, ST, or P, the applicable study product (400 mg or 800 mg relacorilant or placebo for relacorilant) were taken once daily in the morning for 5 consecutive days. During the dosing period of positive control (Treatment M), placebo for relacorilant were administered on Days 1 to 4 to align with the dosing schedule for the other three treatments and moxifloxacin were administered in an open-labeled manner as a single dose in the morning of Day 5. Therefore, the treatment on Days 1 to 4 were double-blinded; it was not known before the morning on Day 5 whether or not a subject was allocated to receive moxifloxacin. Each dosing period (from Periods 2 to 4) was separated from the previous period by a washout period of at least 10 days from Day 6 of the previous period to Day 1 (first dose) of the subsequent period to prevent a carryover effect. The final visit was on Day 6 of Period 4. A safety phone follow-up was scheduled at 7 days (±2 days) post the final visit/early termination (ET) visit.

[3] = human, in vivo
Experimental: A phase 1, 3-part, single-center, First-in-Human study (NCT03508635) included 103 healthy volunteers who received single or multiple ascending doses (SAD/MAD) of relacorilant (up to 500 mg QD) for up to 14 days; 24 received placebo.
Relacorilant plasma concentration and QTcF data in the SAD and MAD phases were best fit with a linear model with treatment-specific intercepts. For both phases, the model-estimated slopes (90% CI) were slightly negative (SAD: −0.59[−2.14, 0.97]×10^−3 msec/ng/ml; MAD: −2.34[−3.16 to −1.52]×10^−3 msec/ng/ml). Therefore, a concentration-dependent effect of relacorilant on QTc prolongation was not identified.

## Cn1cc(S(=O)(=O)N2CCC3=Cc4c(cnn4-c4ccc(F)cc4)C[C@]3(C(=O)c3cc(C(F)(F)F)ccn3)C2)cn1 [relacorilant, ((R)-(1-(4-fluorophenyl)-6-((1-methyl-1H-pyrazol-4-yl)sulfonyl)-4,4a,5,6,7,8-hexahydro-1H-pyrazolo[3,4-g]isoquinolin-4a-yl)(4-(trifluoromethyl)pyridine-2-yl)methanone)]
[1]; high-fat breakfast
  increase of Cmax relative to fasting conditions: approximately 34%
[1]; moderate-fat breakfast
  increase of Cmax relative to fasting conditions: ~41%
Patients with CS; CS study
  hypokalemia: no instances
Patients with CS; high-dose group
  abnormal sinus tachycardia, post-baseline ECG finding: 11.1%
Patients with CS; high-dose group (18 patients)
  abnormal sinus tachycardia, post-baseline ECG finding: 2 patients
Patients with CS; high-dose group, 250 to 400 mg/day, FIG. 6B
  change in median QTcF: No significant changes
Patients with CS; low-dose group
  abnormal sinus tachycardia, post-baseline ECG finding: 17.6%
Patients with CS; low-dose group (17 patients)
  abnormal sinus tachycardia, post-baseline ECG finding: 3 patients
Patients with CS; low-dose group, 100 to 200 mg/day, FIG. 6A
  change in median QTcF: No significant changes
[2]; 400 mg (Day 5)
  ΔΔQTcF Estimate (msec) (90% CI), predicted at geometric mean Cmax: -3.02 ms
[2]; 400 mg (Day 5), listed as Relacorilant
  ΔΔQTcF Estimate (msec) (90% CI), predicted at geometric mean Cmax: −3.02 (−4.16, −1.88)^1 msec
[2]; 400 mg and 800 mg QD
  effect on HR: did not have a clinically relevant effect on HR
[2]; 800 mg (Day 5)
  ΔΔQTcF Estimate (msec) (90% CI), predicted at geometric mean Cmax: -3.87 ms
[2]; 800 mg (Day 5), listed as Relacorilant
  ΔΔQTcF Estimate (msec) (90% CI), predicted at geometric mean Cmax: −3.87 (−5.56, −2.17)^1 msec
[2]; 2 hours post-dose on Day 5, 800 mg treatment
  LS mean placebo-corrected ΔHR, highest across post-dose time points: 2.4 bpm
[2]; 12 hours post-dose on Day 1, 800 mg treatment
  LS mean placebo-corrected ΔHR, lowest across post-dose time points: −3.2 bpm
[2]; Across all 3 studies (First-in-Human, TQT, and CS studies)
  tolerability: well tolerated
[2]; concentration-QTc modeling, plasma concentrations up to ˜4500 ng/mL
  effect on ΔΔQTcF exceeding the 10-msec threshold: excluded
[2]; linear mixed-effects model
  estimated slope (90% CI) of plasma concentration in the concentration-QTc relationship: −0.97(−1.68, −0.25) ×10^−3 msec/ng/ml and −0.97 ×10^−3 msec/ng/ml
[2]; therapeutic (400 mg) and supra-therapeutic (800 mg) doses
  effect on ECG parameters: no adverse effects on ECG parameters
[3]
  observed range of plasma concentrations, upper end: approximately 4000 ng/ml
  time of Cmax: 2 h
